Source: patent US7786299B2, “Methods for treating diseases or conditions using dihydropteridinone compounds” (Boehringer Ingelheim Pharma GmbH & Co. KG, priority 2003, dated 2010)

Experiments:
HeLaS3 cells = assay: Measurement of cytotoxicity on cultivated human tumour cells (AlamarBlue); assay type: cell-based; details: HeLa in Table 1; unit inferred
Procedure: The activity of the compounds according to the invention was determined in the cytotoxicity test on cultivated human tumour cells and/or in a FACS analysis, for example on HeLaS3 cells.
Measurement of Cytotoxicity on Cultivated Human Tumour Cells
To measure the cytotoxicity on cultivated human tumour cells, cells of the cervical cancer tumour cell line HeLaS3 (obtained from American Type Culture Collection (ATCC)) in Ham's F12 Medium (Life Technologies) and 10% foetal calf serum (Life Technologies) were cultivated and harvested in the logarithmic growth phase. Then the HeLaS3 cells were placed in 96-well plates (Costar) at a density of 1000 cells per well and incubated overnight in an incubator (at 37° C. and 5% CO2), while on each plate 6 wells were filled only with medium (3 wells as a control of the medium, 3 wells for incubation with reduced AlamarBlue). The active substances were added to the cells in various concentrations (dissolved in DMSO; final concentration: 1%) (in each case as a triple measurement). After 72 hours' incubation, 20 μl of AlamarBlue (AccuMed International) were added to each well, and the cells were incubated for a further 7 hours. As a control, 20 μl of reduced Alamar Blue (AlamarBlue reagent which had been autoclaved for 30 min) were added to 3 wells. After 7 h incubation the colour change of the AlamarBlue reagent in the individual wells was determined in a Perkin Elmer fluorescence spectrophotometer (excitation 530 nm, emission 590 nm, slits 15, integrate time 0.1). The amount of AlamarBlue reagent reacted represents the metabolic activity of the cells. The relative cell activity was calculated as a percentage of the control (HeLa S3 cells without inhibitor) and the active substance concentration which inhibits the cell activity by 50% (IC^50) was obtained. The values were calculated from the average of three individual measurements, correcting for the control value (medium control).

H460-VINC = assay: Cytotoxicity on H460-VINC cells (Table 1; method not given); assay type: cell-based; details: H460-VINC of Table 1; unit inferred

Structure (SMILES) | IC50 (HeLaS3 cells) [nM] | IC50 (H460-VINC) [nM]
CC[C@@H]1C(=O)N(C)c2cnc(Nc3ccc(C(=O)NCCCN4CCOCC4)cc3OC)nc2N1CCC(C)C [Example 152] | 81 | –
COc1cc(C(=O)NC2CCC(N3CCCC3)CC2)ccc1Nc1ncc2c(n1)N(C1CCCC1)C(C)C(=O)N2C (stereo not drawn) [Example 15] | 20 | –
COc1cc(C(=O)NC2CC(C)(C)N(C)C(C)(C)C2)ccc1Nc1ncc2c(n1)N(C1CCCCC1)C(C)C(=O)N2C (stereo not drawn) [Example 117] | 10 | 370
CCC1C(=O)N(C)c2cnc(Nc3ccc(C(=O)NC4CCC(N5CCCCC5)CC4)cc3OC)nc2N1C1CCCC1 (stereo not drawn) [Example 128] | 15 | 282
COc1cc(C(=O)N[C@H]2CC[C@H](N3CCOCC3)CC2)ccc1Nc1ncc2c(n1)N(C1CCCC1)[C@H](C)C(=O)N2C [Example 40] | 38 | 187
COc1cc(C(=O)NC2CCN(C)CC2)ccc1Nc1ncc2c(n1)N(CCC(C)C)C(C)(C)C(=O)N2C [Example 162] | 71 | 903
CC(C)N1c2nc(Nc3ccc(C(=O)NC4CC(C)(C)N(C)C(C)(C)C4)cc3)ncc2N(C)C(=O)[C@H]1C [Example 33] | 97 | ≥ 3000
COc1cc(C(=O)NC2CCC(N3CCOCC3)CC2)ccc1Nc1ncc2c(n1)N(C1CCCCC1)C(C)C(=O)N2C (stereo not drawn) [Example 130] | 15 | 91
COc1cc(C(=O)NC2CCN(C)CC2)ccc1Nc1ncc2c(n1)N(CCC(C)C)C(C)C(=O)N2C (stereo not drawn) [Example 146] | 66 | 966
COc1cc(C(=O)NCCCN2CCOCC2)ccc1Nc1ncc2c(n1)N(C1CCCC1)C(C)C(=O)N2C (stereo not drawn) [Example 63] | 81 | 206
COc1cc(C(=O)NCC(C)(C)CN(C)C)ccc1Nc1ncc2c(n1)N(CC(C)(C)C)C(C)C(=O)N2C (stereo not drawn) [Example 52] | 79 | 153
COc1cc(C(=O)NC2CCN(C)CC2)ccc1Nc1ncc2c(n1)N(C1CCCC1)[C@H](C)C(=O)N2C [Example 80] | 38 | 286
COc1cc(C(=O)NCCN(C(C)C)C(C)C)ccc1Nc1ncc2c(n1)N(CCC(C)C)C(C)(C)C(=O)N2C [Example 161] | 81 | –
COc1cc(C(=O)N[C@H]2CC[C@H](N3CCCCC3)CC2)ccc1Nc1ncc2c(n1)N(CCC(C)C)[C@H](C)C(=O)N2C [Example 29] | 49 | –
COc1cc(C(=O)NC2CC(C)(C)N(C)C(C)(C)C2)ccc1Nc1ncc2c(n1)N(C(C)C)[C@H](C)C(=O)N2C [Example 32] | 49 | ≥ 3000
Cc1cc(C(=O)NC2CCN(C)CC2)ccc1Nc1ncc2c(n1)N(C1CCCCC1)[C@H](C)C(=O)N2C [Example 94] | 18 | 510
COc1cc(C(=O)NCC(C)(C)CN(C)C)ccc1Nc1ncc2c(n1)N(C1CCCC1)C(C)C(=O)N2C (stereo not drawn) [Example 60] | 41 | 189
C[C@@H]1C(=O)N(C)c2cnc(Nc3ccc(C(=O)NC4CC5CCC(C4)N5C)cc3)nc2N1C1CCCCC1 (stereo partly drawn) [Example 92] | 43 | –
CCC1C(=O)N(C)c2cnc(Nc3ccc(C(=O)NC(C)(C)CN4CCCC4)cc3OC)nc2N1C(C)C (stereo not drawn) [Example 54] | 31 | 226
CC[C@@H]1C(=O)N(C)c2cnc(Nc3ccc(C(=O)NCCCN(CC)CC)cc3OC)nc2N1CCC(C)C [Example 165] | 46 | 668

Structure (SMILES) | IC50 (HeLaS3 cells) [nM] | IC50 (H460-VINC) [nM]
CCC1C(=O)N(C)c2cnc(Nc3ccc(C(=O)NC4CCN(CC)CC4)cc3OC)nc2N1C1CCCC1 (stereo not drawn) [Example 22] | 8 | 347
CC[C@@H]1C(=O)N(C)c2cnc(Nc3ccc(C(=O)NCCCN4CCCC4)cc3OC)nc2N1CCC(C)C [Example 157] | 51 | –
CC[C@@H]1C(=O)N(C)c2cnc(Nc3ccc(C(=O)NC4CCN(C)CC4)cc3OC)nc2N1CCC(C)C [Example 171] | 31 | 790
CC[C@@H]1C(=O)N(C)c2cnc(Nc3ccc(C(=O)NCC(C)(C)CN(C)C)cc3OC)nc2N1CCC(C)C [Example 168] | 42 | 88
COc1cc(C(=O)NCCCN2CCCCC2)ccc1Nc1ncc2c(n1)N(C1CCCC1)C(C)C(=O)N2C (stereo not drawn) [Example 64] | 64 | 894
COc1cc(C(=O)NC2CCN(Cc3ccccc3)CC2)ccc1Nc1ncc2c(n1)N(C1CCOCC1)C(C)C(=O)N2C (stereo not drawn) [Example 181] | – | 754
CC[C@@H]1C(=O)N(C)c2cnc(Nc3ccc(C(=O)NCCCN(C)C)cc3OC)nc2N1CCC(C)C [Example 164] | 30 | 975
CC[C@@H]1C(=O)N(C)c2cnc(Nc3ccc(C(=O)NCCN(CC)CC)cc3OC)nc2N1C(C)C [Example 74] | 43 | –
CC[C@@H]1C(=O)N(C)c2cnc(Nc3ccc(C(=O)NCCCN4CCOCC4)cc3)nc2N1CCC(C)C [Example 155] | 79 | –
COc1cc(C(=O)NC2CCC(N3CCCC3)CC2)ccc1Nc1ncc2c(n1)N(CCC(C)C)[C@H](C)C(=O)N2C (stereo partly drawn) [Example 34] | 55 | –
Cc1cc(C(=O)NC2CC3CCC(C2)N3C)ccc1Nc1ncc2c(n1)N(C1CCCCC1)[C@H](C)C(=O)N2C (stereo partly drawn) [Example 95] | 47 | –
CCN(CC)CCNC(=O)c1ccc(Nc2ncc3c(n2)N(c2ccccc2)C(C)C(=O)N3C)c(OC)c1 (stereo not drawn) [Example 59] | 95 | –
COc1cc(C(=O)NC2CCC(N3CCCCC3)CC2)ccc1Nc1ncc2c(n1)N(C1CCCC1)C(C)C(=O)N2C (stereo not drawn) [Example 25] | 38 | –
COc1cc(C(=O)NC2CCC(N3CCCC3)CC2)ccc1Nc1ncc2c(n1)N(C1CCCC1)[C@H](C)C(=O)N2C (stereo partly drawn) [Example 36] | 21 | –
CC[C@@H]1C(=O)N(C)c2cnc(Nc3ccc(C(=O)NCCN(C)C)cc3OC)nc2N1CCC(C)C [Example 159] | 29 | –
CC1C(=O)N(C)c2cnc(Nc3ccc(C(=O)NC4CC(C)(C)N(C)C(C)(C)C4)cc3)nc2N1CC(C)(C)C (stereo not drawn) [Example 8] | 63 | –
CCC1C(=O)N(C)c2cnc(Nc3ccc(C(=O)NCCN4CCCCC4)cc3OC)nc2N1CCC(C)C (stereo not drawn) [Example 148] | 87 | –
CC1C(=O)N(C)c2cnc(Nc3ccc(C(=O)NCCN4CCCCC4)cc3)nc2N1C1CCCC1 (stereo not drawn) [Example 70] | 92 | –
C[C@@H]1C(=O)N(C)c2cnc(Nc3ccc(C(=O)NC4CCN(C)CC4)cc3)nc2N1C1CCCC1 [Example 79] | 43 | –
CC1C(=O)N(C)c2cnc(Nc3ccc(C(=O)NC4CCN(Cc5ccccc5)CC4)cc3)nc2N1CC(C)(C)C (stereo not drawn) [Example 10] | 91 | –

Structure (SMILES) | IC50 (HeLaS3 cells) [nM] | IC50 (H460-VINC) [nM]
CCC1C(=O)N(C)c2cnc(Nc3ccc(C(=O)NC4CN5CCC4CC5)cc3OC)nc2N1CCC(C)C (stereo not drawn) [Example 163] | 71 | –
CC[C@@H]1C(=O)N(C)c2cnc(Nc3ccc(C(=O)NCCN(CC)CC)cc3)nc2N1C(C)C [Example 73] | 91 | –
CCC1C(=O)N(C)c2cnc(Nc3ccc(C(=O)NCCN(CC)CC)cc3OC)nc2N1CCC(C)C (stereo not drawn) [Example 149] | 85 | –
COc1cc(C(=O)NC(C)(C)CN(C)C)ccc1Nc1ncc2c(n1)N(C1CCCC1)[C@H](C)C(=O)N2C [Example 175] | – | 296
CCN1CCC(NC(=O)c2ccc(Nc3ncc4c(n3)N(CCC(C)C)C(C)C(=O)N4C)cc2)CC1 (stereo not drawn) [Example 4] | 98 | –
CCC1C(=O)N(C)c2cnc(Nc3ccc(C(=O)NC4CC5CCC(C4)N5C)cc3)nc2N1C1CCCC1 (stereo not drawn) [Example 47] | 28 | –
CCN(CC)CCCNC(=O)c1ccc(Nc2ncc3c(n2)N(C2CCCC2)[C@H](C)C(=O)N3C)c(OC)c1 [Example 76] | 68 | –
COc1cc(C(=O)N[C@H]2CC[C@H](N3CCCC3)CC2)ccc1Nc1ncc2c(n1)N(CCC(C)C)[C@H](C)C(=O)N2C [Example 35] | 88 | –
CC(C)CCN1c2nc(Nc3ccc(C(=O)NC4CC(C)(C)N(C)C(C)(C)C4)cc3)ncc2N(C)C(=O)C1C (stereo not drawn) [Example 3] | 61 | –
CC[C@@H]1C(=O)N(C)c2cnc(Nc3ccc(C(=O)NCCCN4CCOCC4)cc3)nc2N1CCC(C)C [Example 154] | 97 | –
CC[C@@H]1C(=O)N(C)c2cnc(Nc3ccc(C(=O)NCCN4CCCCC4)cc3OC)nc2N1C(C)C [Example 72] | 50 | –
CN1CCC(NC(=O)c2ccc(Nc3ncc4c(n3)N(C3CCCC3)[C@H](C3CC3)C(=O)N4C)cc2)CC1 [Example 93] | 60 | –
CCC1C(=O)N(C)c2cnc(Nc3ccc(C(=O)NCCN4CCCCC4)cc3)nc2N1CCC(C)C (stereo not drawn) [Example 150] | 43 | –
CCC1C(=O)N(C)c2cnc(Nc3ccc(C(=O)NC4CCN(Cc5ccccc5)CC4)cc3OC)nc2N1C1CCCCC1 (stereo not drawn) [Example 180] | – | 147
CC[C@@H]1C(=O)N(C)c2cnc(Nc3ccc(C(=O)NC(C)(C)CN(C)C)cc3OC)nc2N1C1CCCC1 [Example 177] | – | 82
CCN1CC[C@@H](NC(=O)c2ccc(Nc3ncc4c(n3)N(CCC(C)C)[C@H](C)C(=O)N4C)cc2)C1 [Example 39] | 75 | –
CC[C@@H]1C(=O)N(C)c2cnc(Nc3ccc(C(=O)NC(C)(C)CN(C)C)cc3OC)nc2N1C(C)C [Example 176] | – | 301
CCC1C(=O)N(C)c2cnc(Nc3ccc(C(=O)NCCCN4CCOCC4)cc3OC)nc2N1CCC(C)C (stereo not drawn) [Example 151] | 43 | –
